Reference: PubChem BioAssay (NCI)
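Results reflect a 48-hour exposure of cells in 96-well plates to compound at five concentrations. GI50 = concentration required for 50% inhibition of growth. Definition used: TGI = concentration required for complete inhibition of growth.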

What was measured:
Assay in all cases: NCI-60 cell line screen, 48 h
[1] = tested on: NCI-H23 lung
[2] = tested on: NCI-H460 lung
[3] = tested on: NCI-H522 lung
[4] = tested on: NCI/ADR-RES ovarian
[5] = tested on: OVCAR-3 ovarian
[6] = tested on: OVCAR-4 ovarian
[7] = tested on: OVCAR-5 ovarian
[8] = tested on: OVCAR-8 ovarian
[9] = tested on: PC-3 prostate
[10] = tested on: RPMI-8226 leukemia
[11] = tested on: RXF 393 renal
[12] = tested on: SF-268 CNS
[13] = tested on: SF-295 CNS
[14] = tested on: SF-539 CNS
[15] = tested on: SK-MEL-2 melanoma
[16] = tested on: SK-MEL-28 melanoma
[17] = tested on: SK-MEL-5 melanoma
[18] = tested on: SK-OV-3 ovarian
[19] = tested on: SN12C renal
[20] = tested on: SNB-19 CNS
[21] = tested on: SNB-75 CNS
[22] = tested on: SR leukemia
[23] = tested on: SW-620 colon
[24] = tested on: T-47D breast
[25] = tested on: TK-10 renal
[26] = tested on: U251 CNS
[27] = tested on: UACC-257 melanoma
[28] = tested on: UACC-62 melanoma
[29] = tested on: UO-31 renal

O=S(=O)(Nc1cc(F)cc(F)c1)c1ccc(-c2cnc(C3CC3)o2)cc1
TGI [1]: 77.1 µM | GI50 [2]: 2.64 µM | TGI [2]: 21.4 µM | GI50 [3]: 2.03 µM | TGI [3]: 40.4 µM | GI50 [4]: 1.7 µM | TGI [4]: 68.1 µM | GI50 [5]: 1.57 µM | TGI [5]: 15.6 µM | GI50 [6]: 5.93 µM | TGI [6]: 90.9 µM | GI50 [7]: 6.12 µM | TGI [7]: > 100 µM | GI50 [8]: 4.31 µM | TGI [8]: > 100 µM | GI50 [9]: 1.99 µM | TGI [9]: > 100 µM | GI50 [10]: 3.44 µM | TGI [10]: 66.2 µM | GI50 [11]: 1.66 µM | TGI [11]: 6.79 µM | GI50 [12]: 6.73 µM | TGI [12]: 48.8 µM | GI50 [13]: 1.29 µM | TGI [13]: 11.7 µM | GI50 [14]: 2.52 µM | TGI [14]: 14.6 µM | GI50 [15]: 4.51 µM | TGI [15]: 41.6 µM | GI50 [16]: 13.3 µM | TGI [16]: > 100 µM | GI50 [17]: 3.27 µM | TGI [17]: 13.1 µM | GI50 [18]: 3.8 µM | TGI [18]: 42 µM | GI50 [19]: 4.87 µM | TGI [19]: 59.6 µM | GI50 [20]: 3.73 µM | TGI [20]: > 100 µM | GI50 [21]: 1.05 µM | TGI [21]: 3.98 µM | GI50 [22]: 0.513 µM | TGI [22]: > 100 µM | GI50 [23]: 1.12 µM | TGI [23]: > 100 µM | GI50 [24]: 3.08 µM | TGI [24]: 79.9 µM | GI50 [25]: 8.65 µM | TGI [25]: 68.7 µM | GI50 [26]: 3.28 µM | TGI [26]: > 100 µM | GI50 [27]: 12.3 µM | TGI [27]: 52.9 µM | GI50 [28]: 0.94 µM | TGI [28]: 20 µM | GI50 [29]: 4.69 µM | TGI [29]: > 100 µM
